Measured values reported in PMC4775225, “Bromodomain inhibition of the transcriptional coactivators CBP/EP300 as a therapeutic strategy to target the IRF4 network in multiple myeloma” (eLife, 2016).
Like-named read-outs stand apart in the source and are kept apart here.

What was measured:
[1] = test system: SKNO-1; assay: Viability, resazurin, 6 days; type: cell-based; settings: Homo sapiens, 144 h, SKNO-1, AML
Description: (§1) Cells were plated at 5000–10000 cells per well of 96-well plates containing titrations of the compounds as indicated. After incubation, the cells were incubated with 500 μg/ml resazurin (Sigma) in PBS for 2–8 hr, and fluorescence was measured (Ex 530 nm, Em 590 nm). Cell cycle analysis was performed as described previously ([Mertz et al., 2011]). For visualization, DNA content histograms were generated with GraphPad Prism. Dose-response curves were generated by plotting the normalized percent growth, percent sub-G1 and percent increase in G0/G1 at each dose values. GI50 values were determined as the concentration at which viability was 50% of the DMSO value and calculated by a four-parameter non-linear regression model in GraphPad Prism.

[2] = test system: OCI-AML-3; assay: Viability, resazurin, 6 days; type: cell-based; settings: Homo sapiens, 144 h, OCI-AML-3, AML
Description: as §1

[3] = target: T1, BAZ2B bromodomain (Homo sapiens, UniProt Q9UIF8); assay: Differential scanning fluorimetry; type: binding; settings: BAZ2B 4–8 μM, compound 20 μM; read-out: DTm
T1 construct: Differential scanning fluorimetry was carried out with the indicated isolated bromodomains at 4–8 μM
T1 sequence (Q9UIF8 2060-2164 limits assumed): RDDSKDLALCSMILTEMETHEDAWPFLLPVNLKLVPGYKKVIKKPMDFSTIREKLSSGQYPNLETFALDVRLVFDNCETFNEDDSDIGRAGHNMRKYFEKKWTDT
Description: (§2) Variable buffer compositions were used for the different bromodomain proteins with 12X SYPRO orange dye, 20 μM of the compounds or equivalent percentage of DMSO, and 4–8 µM of the indicated protein. […] The melting temperature (Tm) for each sample was determined using the ViiA7 software (version 1.2.2) and the ΔTm was calculated by subtracting the Tm of the control from the Tm of the compound treated sample.

[4] = test system: BRD8 bromodomain; assay: Differential scanning fluorimetry; type: binding; settings: BRD8 4–8 μM, compound 20 μM
Description: as §2

[5] = target: T2, BRPF1 bromodomain (Homo sapiens, UniProt P55201); assay: Differential scanning fluorimetry; type: binding; settings: BRPF1 4–8 μM, compound 20 μM; read-out: DTm
T2 construct: Differential scanning fluorimetry was carried out with the indicated isolated bromodomains at 4–8 μM
T2 sequence (P55201 628-732 limits assumed): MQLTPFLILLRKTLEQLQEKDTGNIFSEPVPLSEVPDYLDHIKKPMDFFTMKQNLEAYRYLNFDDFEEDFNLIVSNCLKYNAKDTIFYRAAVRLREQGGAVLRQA
Description: as §2

[6] = test system: BRD4 bromodomain; assay: Differential scanning fluorimetry; type: binding; settings: BRD4 4–8 μM, compound 20 μM
Description: as §2

[7] = target: T3, TRIM24 bromodomain (Homo sapiens, UniProt O15164); assay: Differential scanning fluorimetry; type: binding; settings: TRIM24 4–8 μM, compound 20 μM; read-out: DTm
T3 construct: Differential scanning fluorimetry was carried out with the indicated isolated bromodomains at 4–8 μM
T3 sequence (O15164 899-1004 limits assumed): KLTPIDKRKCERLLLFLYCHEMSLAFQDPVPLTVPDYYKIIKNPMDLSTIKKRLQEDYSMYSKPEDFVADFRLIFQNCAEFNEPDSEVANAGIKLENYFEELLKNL
Description: as §2

[8] = target: T4, BPTF bromodomain (Homo sapiens, UniProt Q12830); assay: Differential scanning fluorimetry; type: binding; settings: BPTF 4–8 μM, compound 20 μM; read-out: DTm
T4 construct: Differential scanning fluorimetry was carried out with the indicated isolated bromodomains at 4–8 μM
Description: as §2

[9] = target: T5, CECR2 bromodomain (Homo sapiens, UniProt Q9BXF3); assay: Differential scanning fluorimetry; type: binding; settings: CECR2 4–8 μM, compound 20 μM; read-out: DTm
T5 construct: Differential scanning fluorimetry was carried out with the indicated isolated bromodomains at 4–8 μM
T5 sequence (Q9BXF3 434-538 limits assumed): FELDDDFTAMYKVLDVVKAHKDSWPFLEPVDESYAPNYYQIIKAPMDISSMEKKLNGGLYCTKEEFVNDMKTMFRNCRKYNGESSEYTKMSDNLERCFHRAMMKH
Description: as §2

[10] = target: GCN5 bromodomain (Homo sapiens, UniProt Q92830); assay: Differential scanning fluorimetry; type: binding; settings: GCN5 4–8 μM, compound 20 μM; read-out: DTm
Chain of GCN5 bromodomain (Q92830 728-832 limits assumed): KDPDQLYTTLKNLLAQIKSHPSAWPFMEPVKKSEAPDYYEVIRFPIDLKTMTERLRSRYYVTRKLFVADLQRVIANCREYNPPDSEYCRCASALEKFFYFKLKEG
Description: as §2

[11] = target: T6, BRD1 bromodomain (Homo sapiens, UniProt O95696); assay: Differential scanning fluorimetry; type: binding; settings: BRD1 4–8 μM, compound 20 μM; read-out: DTm
T6 construct: Differential scanning fluorimetry was carried out with the indicated isolated bromodomains at 4–8 μM
T6 sequence (O95696 562-666 limits assumed): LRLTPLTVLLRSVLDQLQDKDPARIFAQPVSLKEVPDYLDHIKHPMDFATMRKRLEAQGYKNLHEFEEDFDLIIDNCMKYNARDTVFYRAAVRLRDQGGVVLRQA
Description: as §2

[12] = target: T7, BRD9 bromodomain (Homo sapiens, UniProt Q9H8M2); assay: Differential scanning fluorimetry; type: binding; settings: BRD9 4–8 μM, compound 20 μM; read-out: DTm
T7 construct: Differential scanning fluorimetry was carried out with the indicated isolated bromodomains at 4–8 μM
T7 sequence (Q9H8M2 136-240 limits assumed): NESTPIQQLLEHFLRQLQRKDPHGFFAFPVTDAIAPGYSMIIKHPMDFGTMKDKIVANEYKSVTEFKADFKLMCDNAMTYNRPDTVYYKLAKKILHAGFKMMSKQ
Description: as §2

[13] = target: T8, PCAF bromodomain (Homo sapiens, UniProt Q92831); assay: Differential scanning fluorimetry; type: binding; settings: PCAF 4–8 μM, compound 20 μM; read-out: DTm
T8 construct: Differential scanning fluorimetry was carried out with the indicated isolated bromodomains at 4–8 μM
T8 sequence (Q92831 723-827 limits assumed): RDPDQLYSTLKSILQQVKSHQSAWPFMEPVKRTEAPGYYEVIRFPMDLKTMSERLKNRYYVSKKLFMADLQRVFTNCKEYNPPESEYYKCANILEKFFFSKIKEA
Description: as §2

[14] = target: T9, ASH1L bromodomain (Homo sapiens, UniProt Q9NR48); assay: Differential scanning fluorimetry; type: binding; settings: ASH1L 4–8 μM, compound 20 μM; read-out: DTm
T9 construct: Differential scanning fluorimetry was carried out with the indicated isolated bromodomains at 4–8 μM
Description: as §2

[15] = test system: WDR9 bromodomain; assay: Differential scanning fluorimetry; type: binding; settings: WDR9 4–8 μM, compound 20 μM
Description: as §2

[16] = target: T10, TAF1 BD1 BD2 (Homo sapiens, UniProt P21675); assay: Differential scanning fluorimetry; type: binding; settings: TAF1 BD1 BD2 4–8 μM, compound 20 μM; read-out: DTm
T10 construct: Differential scanning fluorimetry was carried out with the indicated isolated bromodomains at 4–8 μM
T10 sequence (P21675 1397-1628 limits assumed): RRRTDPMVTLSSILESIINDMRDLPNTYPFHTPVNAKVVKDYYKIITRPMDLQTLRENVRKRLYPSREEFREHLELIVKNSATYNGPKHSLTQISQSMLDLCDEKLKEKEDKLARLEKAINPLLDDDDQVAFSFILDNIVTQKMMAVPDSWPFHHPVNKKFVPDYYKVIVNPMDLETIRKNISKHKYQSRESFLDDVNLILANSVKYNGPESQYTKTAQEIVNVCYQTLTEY
Description: as §2

[17] = target: T11, BRPF3 bromodomain (Homo sapiens, UniProt Q9ULD4); assay: Differential scanning fluorimetry; type: binding; settings: BRPF3 4–8 μM, compound 20 μM; read-out: DTm
T11 construct: Differential scanning fluorimetry was carried out with the indicated isolated bromodomains at 4–8 μM
T11 sequence (Q9ULD4 589-693 limits assumed): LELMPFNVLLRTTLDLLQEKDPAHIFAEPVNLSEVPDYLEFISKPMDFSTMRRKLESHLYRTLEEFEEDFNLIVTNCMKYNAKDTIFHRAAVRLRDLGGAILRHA
Description: as §2

[18] = target: T12, BRG1 bromodomain (Homo sapiens, UniProt P51532); assay: Differential scanning fluorimetry; type: binding; settings: BRG1 4–8 μM, compound 20 μM; read-out: DTm
T12 construct: Differential scanning fluorimetry was carried out with the indicated isolated bromodomains at 4–8 μM
T12 sequence (P51532 1453-1564 limits assumed): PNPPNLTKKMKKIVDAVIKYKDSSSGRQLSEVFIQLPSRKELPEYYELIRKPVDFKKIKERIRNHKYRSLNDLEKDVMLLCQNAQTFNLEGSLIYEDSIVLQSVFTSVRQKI
Description: as §2

[19] = target: T13, BRD7 bromodomain (Homo sapiens, UniProt Q9NPI1); assay: Differential scanning fluorimetry; type: binding; settings: BRD7 4–8 μM, compound 20 μM; read-out: DTm
T13 construct: Differential scanning fluorimetry was carried out with the indicated isolated bromodomains at 4–8 μM
T13 sequence (Q9NPI1 131-235 limits assumed): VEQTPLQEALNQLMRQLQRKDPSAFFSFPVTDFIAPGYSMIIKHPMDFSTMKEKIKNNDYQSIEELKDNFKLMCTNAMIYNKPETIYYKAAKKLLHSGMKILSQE
Description: as §2

[20] = target: T14, BAZ1A bromodomain (Homo sapiens, UniProt Q9NRL2); assay: Differential scanning fluorimetry; type: binding; settings: BAZ1A 4–8 μM, compound 20 μM; read-out: DTm
T14 construct: Differential scanning fluorimetry was carried out with the indicated isolated bromodomains at 4–8 μM
T14 sequence (Q9NRL2 1430-1533 limits assumed): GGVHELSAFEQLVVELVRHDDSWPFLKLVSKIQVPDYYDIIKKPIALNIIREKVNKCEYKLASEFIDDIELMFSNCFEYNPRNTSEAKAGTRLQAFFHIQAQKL
Description: as §2

[21] = test system: MYC mRNA; assay: MYC mRNA expression, qRT-PCR; type: cell-based, human; settings: for log2FC (MYC): 2.5 μM, 6 hr, log2 fold change relative to DMSO; for IC50: Homo sapiens, read-out: IC50, inhibition of MYC mRNA expression
Description: Total RNA was prepared with an RNeasy Mini Kit (Qiagen, Inc.; Hilden, Germany) with on column DNAse digestion and submitted to Ocean Ridge Biosciences (Palm Beach Gardens, FL) for sequencing and mapping. The data in RPKM for each gene with compound treatment was compared to DMSO treatment, and log2 fold changes were used for further analysis. Rank ordered gene lists were used for Gene Set Enrichment Analysis ([Subramanian et al., 2005]). RNA preparation, cDNA synthesis, and qRT-PCR were performed as described ([Mertz et al., 2011]). For dose titration experiments, cells in 96 -well plates were lysed in lysis buffer (1% Triton X-100, […] pH 2.5) and used directly for cDNA synthesis and qRT-PCR. Primer sequences can be found in Supplementary file 1.

GI50 [1] [µM] | GI50 [2] [µM] | ΔTm at 20 µM [3] [°C] | ΔTm at 20 µM [5] [°C] | ΔTm at 20 µM [7] [°C] | ΔTm at 20 µM [8] [°C] | ΔTm at 20 µM [9] [°C] | ΔTm at 20 µM [10] [°C] | ΔTm at 20 µM [11] [°C] | ΔTm at 20 µM [12] [°C] | ΔTm at 20 µM [13] [°C] | ΔTm at 20 µM [14] [°C] | ΔTm at 20 µM [16] [°C] | ΔTm at 20 µM [17] [°C] | ΔTm at 20 µM [18] [°C] | ΔTm at 20 µM [19] [°C] | ΔTm at 20 µM [20] [°C] | SMILES | DTm [4] [°C] | DTm [6] [°C] | DTm [15] [°C] | further results
4.8 | 3.49 | -0.06 | 0.11 | 0.43 | 0.69 | 0.76 | -0.09 | 0.26 | 0.37 | -0.08 | 0.04 | 0.12 | -0.18 | 0.27 | 0.5 | 0.18 | COc1ccc(CCc2nc3cc(-c4c(C)noc4C)ccc3n2C[C@H](C)N2CCOCC2)cc1Cl [SGC-CBP30] | 0.76 | 2.01 | -0.08 | log2FC (MYC) ([21]; AMO1): -1.13; log2FC (MYC) ([21]; H929): -1.24; IC50 ([21]; OPM-2, OPM2, 6 hr): 2.3 µM; IC50 ([21]; LP-1, 6 hr): 2.5 µM; log2FC (MYC) ([21]; KMM1): -0.48; log2FC (MYC) ([21]; KMS28BM): -0.63; log2FC (MYC) ([21]; LP1): -1.07; log2FC (MYC) ([21]; MOLP8): -0.64; log2FC (MYC) ([21]; OPM2): -0.71; log2FC (MYC) ([21]; RPMI8226): -0.49; log2FC (MYC) ([21]; RS411): -0.56
9.5 | 5.51 | 0.28 | 0.11 | 0.32 | 0.93 | 1.46 | 0.14 | -0.44 | 0.37 | -0.08 | 0.04 | 0.12 | 0.75 | 0.38 | 0.44 | 0.41 | CCC(=O)N1CCOc2c(cc(-c3ccc(OC)c(OC)c3)cc2OC[C@H]2CCCN(C)C2)C1 [I-CBP112] | 0.88 | 2.12 | 0.04 | IC50 ([21]; OPM-2, OPM2, 6 hr): 6.1 µM; IC50 ([21]; LP-1, 6 hr): 11.3 µM
